According to PubChem BioAssay (NCI):
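Protocol summary: plate cells (96-well), add compound at 5 concentrations, incubate 48 h, interpolate endpoints linearly. Abbreviation: GI50, concentration required for 50% inhibition of growth. TGI: total growth inhibition.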

Assays:
Test in all cases: inhibition of tumour cell growth, NCI panel, 48 h; in the data active = GI50 below about 0.43 µM; inactive = the rest
786-0 renal = test system: 786-0 renal
A498 renal = test system: A498 renal
A549 NSCLC = test system: A549 NSCLC
ACHN renal = test system: ACHN renal
CAKI-1 renal = test system: CAKI-1 renal
COLO 205 colon = test system: COLO 205 colon
DU-145 prostate = test system: DU-145 prostate
EKVX NSCLC = test system: EKVX NSCLC
HCC-2998 colon = test system: HCC-2998 colon
HCT-116 colon = test system: HCT-116 colon
HCT-15 colon = test system: HCT-15 colon
HOP-62 NSCLC = test system: HOP-62 NSCLC
HS 578T breast = test system: HS 578T breast
HT29 colon = test system: HT29 colon
IGROV1 ovarian = test system: IGROV1 ovarian
KM12 colon = test system: KM12 colon
M14 melanoma = test system: M14 melanoma
MALME-3M melanoma = test system: MALME-3M melanoma
MDA-MB-231 breast = test system: MDA-MB-231 breast
MDA-MB-435 = test system: MDA-MB-435
MDA-N = test system: MDA-N
MOLT-4 leukemia = test system: MOLT-4 leukemia
NCI-H226 lung = test system: NCI-H226 lung
NCI-H23 lung = test system: NCI-H23 lung
NCI-H460 lung = test system: NCI-H460 lung
NCI-H522 lung = test system: NCI-H522 lung
NCI/ADR-RES ovarian = test system: NCI/ADR-RES ovarian
OVCAR-3 ovarian = test system: OVCAR-3 ovarian
OVCAR-4 ovarian = test system: OVCAR-4 ovarian
OVCAR-5 ovarian = test system: OVCAR-5 ovarian
OVCAR-8 ovarian = test system: OVCAR-8 ovarian
PC-3 prostate = test system: PC-3 prostate
RPMI-8226 leukemia = test system: RPMI-8226 leukemia
RXF 393 renal = test system: RXF 393 renal
SF-268 CNS = test system: SF-268 CNS
SF-295 CNS = test system: SF-295 CNS
SF-539 CNS = test system: SF-539 CNS
SK-MEL-2 melanoma = test system: SK-MEL-2 melanoma
SK-MEL-28 melanoma = test system: SK-MEL-28 melanoma
SK-MEL-5 melanoma = test system: SK-MEL-5 melanoma
SK-OV-3 ovarian = test system: SK-OV-3 ovarian
SN12C renal = test system: SN12C renal
SNB-19 CNS = test system: SNB-19 CNS
SW-620 colon = test system: SW-620 colon
T-47D breast = test system: T-47D breast
TK-10 renal = test system: TK-10 renal
U251 CNS = test system: U251 CNS
UACC-62 melanoma = test system: UACC-62 melanoma
UO-31 renal = test system: UO-31 renal
BT-549 breast = test system: BT-549 breast
CCRF-CEM leukemia = test system: CCRF-CEM leukemia
HL-60(TB) leukemia = test system: HL-60(TB) leukemia
HOP-92 NSCLC = test system: HOP-92 NSCLC
K-562 leukemia = test system: K-562 leukemia
LOX IMVI melanoma = test system: LOX IMVI melanoma
MCF7 breast = test system: MCF7 breast
SNB-75 CNS = test system: SNB-75 CNS
SR leukemia = test system: SR leukemia
UACC-257 melanoma = test system: UACC-257 melanoma

COc1ccc(NC(=O)Oc2ccc3c(C)cc(=O)oc3c2)c(OC)c1 (tested in a mixture with another compound)
> 100 µM: TGI (786-0 renal) | TGI (A549 NSCLC) | TGI (ACHN renal) | TGI (CAKI-1 renal) | TGI (COLO 205 colon) | TGI (DU-145 prostate) | TGI (EKVX NSCLC) | TGI (HCC-2998 colon) | TGI (HCT-116 colon) | TGI (HCT-15 colon) | TGI (HOP-62 NSCLC) | TGI (HS 578T breast) | TGI (HT29 colon) | TGI (IGROV1 ovarian) | TGI (KM12 colon) | TGI (M14 melanoma) | TGI (MALME-3M melanoma) | TGI (MDA-MB-231 breast) | TGI (MDA-MB-435) | TGI (MDA-N) | TGI (MOLT-4 leukemia) | TGI (NCI-H226 lung) | TGI (NCI-H23 lung) | TGI (NCI-H460 lung) | TGI (NCI-H522 lung) | TGI (NCI/ADR-RES ovarian) | TGI (OVCAR-3 ovarian) | TGI (OVCAR-4 ovarian) | TGI (OVCAR-5 ovarian) | TGI (OVCAR-8 ovarian) | TGI (PC-3 prostate) | TGI (RPMI-8226 leukemia) | TGI (RXF 393 renal) | TGI (SF-268 CNS) | TGI (SF-295 CNS) | TGI (SF-539 CNS) | TGI (SK-MEL-2 melanoma) | TGI (SK-MEL-28 melanoma) | TGI (SK-MEL-5 melanoma) | TGI (SK-OV-3 ovarian) | TGI (SN12C renal) | TGI (SNB-19 CNS) | TGI (SW-620 colon) | TGI (T-47D breast) | TGI (TK-10 renal) | TGI (U251 CNS) | TGI (UACC-62 melanoma) | TGI (UO-31 renal)
86.1 µM: TGI (A498 renal)

COc1cc(CCC[P+](c2ccccc2)(c2ccccc2)c2ccccc2)c(OC)c2c1OCO2
8.54 µM: TGI (HS 578T breast)
12.6 µM: TGI (SF-539 CNS)
11.3 µM: TGI (HOP-62 NSCLC)
12.9 µM: TGI (MCF7 breast)
2.5 µM: TGI (SK-MEL-5 melanoma)
21.3 µM: TGI (NCI-H226 lung)
16.1 µM: TGI (OVCAR-4 ovarian)
8.43 µM: TGI (RXF 393 renal)
1.87 µM: TGI (RPMI-8226 leukemia)
68.9 µM: TGI (A549 NSCLC)
21 µM: TGI (ACHN renal)
23.3 µM: TGI (TK-10 renal)
7.18 µM: TGI (CAKI-1 renal)
35.2 µM: TGI (EKVX NSCLC)
5.58 µM: TGI (NCI-H460 lung)
6.44 µM: TGI (UACC-257 melanoma)
6.59 µM: TGI (KM12 colon)
16.2 µM: TGI (HCT-116 colon)
44.1 µM: TGI (UO-31 renal)
6.88 µM: TGI (HOP-92 NSCLC)
12.1 µM: TGI (LOX IMVI melanoma) | TGI (NCI-H522 lung)
active: GI50 (HL-60(TB) leukemia) 0.387 µM | GI50 (RPMI-8226 leukemia) 0.283 µM | GI50 (T-47D breast) 0.419 µM | GI50 (UACC-257 melanoma) 0.378 µM
4.28 µM: TGI (A498 renal)
2.35 µM: TGI (HL-60(TB) leukemia)
14.7 µM: TGI (T-47D breast)
18.9 µM: TGI (MOLT-4 leukemia)
4.59 µM: TGI (SNB-75 CNS)
7.39 µM: TGI (SF-295 CNS)
inactive: GI50 (786-0 renal) 3.44 µM | GI50 (A498 renal) 1.41 µM | GI50 (A549 NSCLC) 3.95 µM | GI50 (ACHN renal) 4.07 µM | GI50 (BT-549 breast) 1.08 µM | GI50 (CAKI-1 renal) 2.42 µM | GI50 (CCRF-CEM leukemia) 1.61 µM | GI50 (COLO 205 colon) 0.907 µM | GI50 (DU-145 prostate) 3.21 µM | GI50 (EKVX NSCLC) 2.83 µM | GI50 (HCC-2998 colon) 2.21 µM | GI50 (HCT-116 colon) 0.989 µM | GI50 (HCT-15 colon) 13.4 µM | GI50 (HOP-62 NSCLC) 2.91 µM | GI50 (HOP-92 NSCLC) 1.15 µM | GI50 (HS 578T breast) 1.74 µM | GI50 (HT29 colon) 0.812 µM | GI50 (IGROV1 ovarian) 1 µM | GI50 (K-562 leukemia) 0.659 µM | GI50 (KM12 colon) 0.828 µM | GI50 (LOX IMVI melanoma) 2.48 µM | GI50 (M14 melanoma) 1.8 µM | GI50 (MALME-3M melanoma) 0.602 µM | GI50 (MCF7 breast) 1.82 µM | GI50 (MDA-MB-231 breast) 2.11 µM | GI50 (MDA-MB-435) 0.494 µM | GI50 (MOLT-4 leukemia) 3.33 µM | GI50 (NCI-H226 lung) 3.13 µM | GI50 (NCI-H23 lung) 1.67 µM | GI50 (NCI-H460 lung) 1.81 µM | GI50 (NCI-H522 lung) 1.43 µM | GI50 (NCI/ADR-RES ovarian) 77.5 µM | GI50 (OVCAR-3 ovarian) 0.633 µM | GI50 (OVCAR-4 ovarian) 1.08 µM | GI50 (OVCAR-5 ovarian) 2.38 µM | GI50 (OVCAR-8 ovarian) 2.36 µM | GI50 (PC-3 prostate) 1.55 µM | GI50 (RXF 393 renal) 2.01 µM | GI50 (SF-268 CNS) 2.13 µM | GI50 (SF-295 CNS) 2.37 µM | GI50 (SF-539 CNS) 2.31 µM | GI50 (SK-MEL-2 melanoma) 1.9 µM | GI50 (SK-MEL-28 melanoma) 0.875 µM | GI50 (SK-MEL-5 melanoma) 1.21 µM | GI50 (SK-OV-3 ovarian) 2.02 µM | GI50 (SN12C renal) 2.56 µM | GI50 (SNB-19 CNS) 1.17 µM | GI50 (SNB-75 CNS) 1.2 µM | GI50 (SR leukemia) 1.1 µM | GI50 (SW-620 colon) 1.83 µM | GI50 (TK-10 renal) 4.05 µM | GI50 (U251 CNS) 1.63 µM | GI50 (UACC-62 melanoma) 0.629 µM | GI50 (UO-31 renal) 10.8 µM
17.5 µM: TGI (U251 CNS)
8.5 µM: TGI (BT-549 breast)
10.9 µM: TGI (SNB-19 CNS)
13.1 µM: TGI (SF-268 CNS)
10.7 µM: TGI (OVCAR-3 ovarian)
24.2 µM: TGI (OVCAR-8 ovarian)
13.3 µM: TGI (HCC-2998 colon) | TGI (SR leukemia)
6.92 µM: TGI (MALME-3M melanoma)
74.5 µM: TGI (DU-145 prostate)
3.38 µM: TGI (COLO 205 colon)
37 µM: TGI (OVCAR-5 ovarian)
14 µM: TGI (SK-MEL-28 melanoma)
4.27 µM: TGI (UACC-62 melanoma)
13.7 µM: TGI (M14 melanoma)
41 µM: TGI (HT29 colon)
5.91 µM: TGI (MDA-MB-435)
6.41 µM: TGI (SK-OV-3 ovarian)
11.7 µM: TGI (IGROV1 ovarian)
> 100 µM: TGI (CCRF-CEM leukemia) | TGI (HCT-15 colon) | TGI (K-562 leukemia) | TGI (NCI/ADR-RES ovarian) | TGI (PC-3 prostate)
16.5 µM: TGI (786-0 renal)
10.3 µM: TGI (MDA-MB-231 breast) | TGI (NCI-H23 lung)
11.4 µM: TGI (SW-620 colon)
10.5 µM: TGI (SK-MEL-2 melanoma) | TGI (SN12C renal)
